In PubChem BioAssay (NCI):
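Five concentrations, 48 hours, 96-well plates. The concentration for full growth arrest is given as TGI.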

What was measured:
Experiment in all cases: NCI tumour cell line growth inhibition, 48 h
[1] = system: K-562 leukemia
[2] = system: OVCAR-4 ovarian
[3] = system: A498 renal
[4] = system: HT29 colon
[5] = system: KM20L2 colon
[6] = system: KM12 colon
[7] = system: SF-295 CNS
[8] = system: SNB-19 CNS
[9] = system: RPMI-8226 leukemia
[10] = system: SK-MEL-2 melanoma
[11] = system: TK-10 renal
[12] = system: IGROV1 ovarian
[13] = system: SK-MEL-28 melanoma
[14] = system: OVCAR-8 ovarian
[15] = system: NCI-H460 lung
[16] = system: HOP-62 NSCLC
[17] = system: M14 melanoma
[18] = system: NCI-H522 lung
[19] = system: COLO 205 colon
[20] = system: SF-539 CNS
[21] = system: HCT-116 colon
[22] = system: HL-60(TB) leukemia
[23] = system: SR leukemia
[24] = system: NCI-H23 lung
[25] = system: LXFL 529 NSCLC
[26] = system: XF 498 CNS
[27] = system: HOP-92 NSCLC
[28] = system: U251 CNS
[29] = system: MOLT-4 leukemia
[30] = system: OVCAR-5 ovarian
[31] = system: UO-31 renal
[32] = system: EKVX NSCLC
[33] = system: LOX IMVI melanoma
[34] = system: ACHN renal
[35] = system: CCRF-CEM leukemia
[36] = system: UACC-257 melanoma
[37] = system: HCT-15 colon
[38] = system: 786-0 renal
[39] = system: M19-MEL melanoma
[40] = system: RXF 393 renal
[41] = system: OVCAR-3 ovarian
[42] = system: A549 NSCLC
[43] = system: NCI-H226 lung
[44] = system: SF-268 CNS
[45] = system: SW-620 colon
[46] = system: DMS 273 small cell lung
[47] = system: CAKI-1 renal
[48] = system: SK-MEL-5 melanoma
[49] = system: SNB-78 CNS
[50] = system: MCF7 breast
[51] = system: DU-145 prostate
[52] = system: MALME-3M melanoma
[53] = system: UACC-62 melanoma
[54] = system: MDA-MB-231 breast
[55] = system: T-47D breast
[56] = system: SK-OV-3 ovarian
[57] = system: HCC-2998 colon
[58] = system: SNB-75 CNS
[59] = system: SN12C renal
[60] = system: DLD-1 colon
[61] = system: DMS 114 small cell lung

With `CC(=O)Oc1ccc2c(=O)c(C(C)=O)coc2c1` the TGI [1] was over 100 µM, the TGI [2] was over 100 µM and the TGI [3] was over 100 µM. For the same molecule, the TGI [4] was over 100 µM, the TGI [5] was over 100 µM and the TGI [6] was over 100 µM. It also gave a TGI [7] of over 100 µM, a TGI [8] of over 100 µM and a TGI [9] of over 100 µM. For the same molecule, the TGI [10] was over 100 µM, the TGI [11] was over 100 µM and the TGI [12] was over 100 µM. It also gave a TGI [13] of over 100 µM, a TGI [14] of over 100 µM and a TGI [15] of over 100 µM. For the same molecule, the TGI [16] was over 100 µM, the TGI [17] was over 100 µM and the TGI [18] was over 100 µM. The TGI [19] was over 100 µM, the TGI [20] was over 100 µM and the TGI [21] was over 100 µM. The TGI [22] was over 100 µM, the TGI [23] was over 100 µM and the TGI [24] was over 100 µM. It also gave a TGI [25] of over 100 µM, a TGI [26] of over 100 µM and a TGI [27] of over 100 µM. For the same molecule, the TGI [28] was over 100 µM, the TGI [29] was over 100 µM and the TGI [30] was over 100 µM. For the same molecule, the TGI [31] was over 100 µM, the TGI [32] was over 100 µM and the TGI [33] was over 100 µM. It also gave a TGI [34] of over 100 µM, a TGI [35] of over 100 µM and a TGI [36] of over 100 µM. The TGI [37] was over 100 µM, the TGI [38] was over 100 µM and the TGI [39] was over 100 µM. It also gave a TGI [40] of over 100 µM, a TGI [41] of over 100 µM and a TGI [42] of over 100 µM. It also gave a TGI [43] of over 100 µM, a TGI [44] of over 100 µM and a TGI [45] of over 100 µM. It also gave a TGI [46] of over 100 µM, a TGI [47] of over 100 µM and a TGI [48] of over 100 µM. For the same molecule, the TGI [49] was over 100 µM.
`CCCCCC(=O)OC[n+]1ccc2c(C)c3[nH]c4ccc(OC)cc4c3c(C)c2c1` was tested, and the TGI [50] was 1.96 µM, the TGI [3] was 2.17 µM and the TGI [51] was 3.19 µM. It also gave a TGI [5] of over 100 µM, a TGI [7] of 1.72 µM and a TGI [52] of over 63.6 µM. For the same molecule, the TGI [10] was over 100 µM, the TGI [11] was 9.74 µM and the TGI [12] was 3.71 µM. It also gave a TGI [15] of 1.04 µM, a TGI [16] of 2.28 µM and a TGI [18] of over 100 µM. The TGI [20] was 1.17 µM, the TGI [23] was over 100 µM and the TGI [53] was 3.31 µM. The TGI [54] was 1.83 µM, the TGI [55] was 13.1 µM and the TGI [29] was over 100 µM. It also gave a TGI [30] of 2.24 µM, a TGI [31] of 3.31 µM and a TGI [56] of 3.03 µM. The TGI [34] was 4.78 µM, the TGI [38] was 1.51 µM and the TGI [41] was over 100 µM. The TGI [42] was 13.7 µM, the TGI [43] was 31 µM and the TGI [44] was over 100 µM. For the same molecule, the TGI [47] was over 23 µM and the TGI [48] was over 100 µM.
Molecule `C#CN1C(=O)c2c(c(-c3ccccc3)c(-c3ccc(Oc4ccc(-c5c(-c6ccccc6)c6c(c(-c7ccccc7)c5-c5ccccc5)C(=O)N(C#C)C6=O)cc4)cc3)c(-c3ccccc3)c2-c2ccccc2)C1=O` has a TGI [1] of over 100 µM, a TGI [2] of over 100 µM and a TGI [4] of over 100 µM. For the same molecule, the TGI [57] was over 100 µM, the TGI [5] was over 100 µM and the TGI [6] was over 100 µM. It also gave a TGI [7] of over 100 µM, a TGI [8] of over 100 µM and a TGI [52] of over 100 µM. For the same molecule, the TGI [9] was over 100 µM, the TGI [10] was over 100 µM and the TGI [11] was over 100 µM. It also gave a TGI [12] of over 100 µM, a TGI [58] of over 100 µM and a TGI [59] of over 100 µM. The TGI [13] was over 100 µM, the TGI [14] was over 100 µM and the TGI [15] was over 100 µM. For the same molecule, the TGI [16] was over 100 µM, the TGI [17] was over 100 µM and the TGI [18] was over 100 µM. The TGI [19] was over 100 µM, the TGI [20] was over 100 µM and the TGI [21] was over 100 µM. It also gave a TGI [22] of over 100 µM, a TGI [53] of over 100 µM and a TGI [24] of over 100 µM. It also gave a TGI [26] of 72.8 µM, a TGI [27] of over 100 µM and a TGI [28] of over 100 µM. It also gave a TGI [29] of over 100 µM, a TGI [30] of over 100 µM and a TGI [31] of over 100 µM. The TGI [32] was over 100 µM, the TGI [33] was over 100 µM and the TGI [34] was over 100 µM. For the same molecule, the TGI [35] was over 100 µM, the TGI [36] was over 100 µM and the TGI [60] was over 100 µM. For the same molecule, the TGI [37] was over 100 µM, the TGI [38] was over 100 µM and the TGI [39] was over 100 µM. For the same molecule, the TGI [40] was over 100 µM, the TGI [41] was over 100 µM and the TGI [42] was over 100 µM. It also gave a TGI [44] of over 100 µM, a TGI [45] of over 100 µM and a TGI [46] of over 100 µM. The TGI [48] was over 100 µM and the TGI [61] was over 100 µM.
Molecule `CCOC(=O)C(C(=O)OCC)=C1C=C(c2ccccc2)c2ccccc21` has a TGI [1] of over 100 µM, a TGI [2] of over 100 µM and a TGI [3] of 62.9 µM. The TGI [4] was over 100 µM, the TGI [57] was over 100 µM and the TGI [5] was over 100 µM. It also gave a TGI [6] of over 100 µM, a TGI [7] of over 100 µM and a TGI [8] of over 100 µM. For the same molecule, the TGI [52] was over 100 µM, the TGI [9] was 89.4 µM and the TGI [10] was over 100 µM. The TGI [11] was over 100 µM, the TGI [12] was over 100 µM and the TGI [58] was over 100 µM. The TGI [59] was over 100 µM, the TGI [13] was over 100 µM and the TGI [14] was over 100 µM. The TGI [15] was over 100 µM, the TGI [16] was over 100 µM and the TGI [17] was over 100 µM. It also gave a TGI [19] of over 100 µM, a TGI [20] of over 100 µM and a TGI [21] of over 100 µM. It also gave a TGI [22] of 92 µM, a TGI [53] of over 100 µM and a TGI [24] of over 100 µM. It also gave a TGI [25] of over 100 µM, a TGI [26] of over 100 µM and a TGI [27] of 46.8 µM. For the same molecule, the TGI [28] was over 100 µM, the TGI [29] was over 100 µM and the TGI [30] was over 100 µM. The TGI [31] was over 100 µM, the TGI [32] was over 100 µM and the TGI [33] was over 100 µM. It also gave a TGI [56] of over 100 µM, a TGI [34] of over 100 µM and a TGI [35] of over 100 µM. It also gave a TGI [36] of over 100 µM, a TGI [60] of over 100 µM and a TGI [37] of over 100 µM. It also gave a TGI [38] of over 100 µM, a TGI [39] of over 100 µM and a TGI [40] of over 100 µM. The TGI [41] was over 100 µM, the TGI [42] was over 100 µM and the TGI [43] was over 100 µM. For the same molecule, the TGI [44] was over 100 µM, the TGI [45] was over 100 µM and the TGI [46] was over 100 µM. For the same molecule, the TGI [48] was over 100 µM, the TGI [61] was over 100 µM and the TGI [49] was over 100 µM.
